Test results published in PMC11960969, “Mdga2 deficiency leads to an aberrant activation of BDNF/TrkB signaling that underlies autism-relevant synaptic and behavioral changes in mice” (PLOS Biology, 2025).

System: mice
Assay: Novel location recognition (NLR) test
Assay type: in vivo, mouse
Description: Six- to eight-week-old male mice were subjected to various behavioral tests. Mice were allowed to acclimatize in the testing room for 1 h prior to each test. Data were recorded and analyzed using Smart 3.0 video tracking system (Panlab, Harvard Apparatus).
This test consists of habituation, training, and testing phases. Mice were first put into the open field apparatus described above for 10 min habituation. During the training phase, mice were allowed to freely explore two identical objects placed near two opposite corners of the open field arena for 8 min. Twenty-four hour later, one of the objects was moved to be close to a third corner (N: Novel location) while the other one was kept in the same spatial position (F: Familiar location). Mice were then tested for their exploration behavior with these objects for 8 min. The discrimination index (T(N − F)/T(N + F): time spent exploring the novel location minus time spent in familiar location over time spent to both novel and familiar location) was calculated to assess the recognition memory of mice.

O=C(Nc1ccccc1C(=O)NC1CCCCNC1=O)c1cc2ccccc2s1 (stereo not drawn) [ANA-12, reference compound]
impaired recognition memory (AAV-Mdga2 shRNA mice, S6C and S6G Fig): neither ANA-12 nor the MDGA2-P2 peptide had effect on rescuing impaired recognition memory
impaired cognitive function (Mdga2+/- mice, acute 0.5 mg/kg i.p. 3 days, Test 1 Interaction F(1,56) = 3.941, p = 0.0520, Test 2 F(1,56) = 0.9635, p = 0.3305): nor did it attenuate impaired cognitive function
recognition memory (Mdga2+/- mice, chronic 0.5 mg/kg i.p. twice per week 3 weeks, Test 1 Interaction F(1,56) = 0.6210, p = 0.4340, Test 2 F(1,56) = 0.7506, p = 0.3900): did not affect the locomotor activity (Fig 5B) or recognition memory
